Assay results taken from patent US20130317214A1, “METHOD FOR PRODUCING MALEATE USING WET CRYSTAL” (KYORIN PHARMACEUTICAL CO., LTD., priority 2010, published 2013).

What was measured:
[1] = Stability test of compound (2) (powder X-ray diffraction); type: physicochemical; details: sealed in a brown bottle, stored at 25° C. for 2 weeks and 4 weeks
Protocol: A filling section of a plate sample holder made of glass was filled with a sample, and powder x-ray diffraction of the sample was then measured using RINT2200 powder x-ray diffractometer manufactured by Rigaku Corporation.
Tube current: 36 mA Tube voltage: 40 kV Scanning rate: 2°/min wavelength: 1.5405 Å (Kα1), 1.5443 Å (Kα2), 1.3922 Å (Kβ1) Divergence slit: 1° Receiving slit: 0.15 mm Scattering slit: 1° Anticathode: copper Scanning range: 5 to 40°
The wet crystal of the compound (2) (Example 1) and the dried product (Reference Example 1) were each sealed in a brown bottle, and stored at 25° C. for 2 weeks and 4 weeks. After the storage, the powder x-ray diffraction of each sample was measured in accordance with the method of Test Example 1.

[2] = Stability test of compound (2) (physical properties); type: physicochemical; details: for physical properties when stored under a condition of 30° C.: storage time not given

SMILES | crystal state by powder x-ray diffraction after storage [1] | physical properties on 3 days after the storage at 30° C. ([2]; sealed in a brown bottle, 3 days) | physical properties when stored under a condition of 30° C. [2]
CCc1cc(OC)cc2nc(-c3cccnc3N3CC[C@H](N(C)C)C3)oc(=O)c12 [dried product of the compound (2)] | complete amorphous form | changed into a glassy mass | changed into a glassy solid
CCc1cc(OC)cc2nc(-c3cccnc3N3CC[C@H](N(C)C)C3)oc(=O)c12 [wet crystal of the compound (2)] | change in the crystal state of the wet crystal of the compound (2) was not observed |  | the state of white powder was maintained
